Assay results published in PubChem BioAssay (NCI).
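Growth conditions: 96-well plates. Treatment: test compound, 48 hours, 5 concentrations. Analysis: linear interpolation between bracketing concentrations; unreached endpoints set to highest concentration. TGI denotes the concentration required for complete inhibition of growth.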

Experiments:
Experiment in all cases: inhibition of tumour cell growth, NCI panel, 48 h
MDA-N = system: MDA-N
UO-31 renal = system: UO-31 renal
DU-145 prostate = system: DU-145 prostate
HOP-62 NSCLC = system: HOP-62 NSCLC
PC-3 prostate = system: PC-3 prostate
UACC-62 melanoma = system: UACC-62 melanoma
OVCAR-5 ovarian = system: OVCAR-5 ovarian
HT29 colon = system: HT29 colon
SN12C renal = system: SN12C renal
HOP-92 NSCLC = system: HOP-92 NSCLC
CAKI-1 renal = system: CAKI-1 renal
ACHN renal = system: ACHN renal
KM12 colon = system: KM12 colon
SW-620 colon = system: SW-620 colon
A549 NSCLC = system: A549 NSCLC
NCI/ADR-RES ovarian = system: NCI/ADR-RES ovarian
SR leukemia = system: SR leukemia

| Structure (SMILES) | TGI (MDA-N) [µM] | TGI (UO-31 renal) [µM] | TGI (DU-145 prostate) [µM] | TGI (HOP-62 NSCLC) [µM] | TGI (PC-3 prostate) [µM] | TGI (UACC-62 melanoma) [µM] | TGI (OVCAR-5 ovarian) [µM] | TGI (HT29 colon) [µM] | TGI (SN12C renal) [µM] | TGI (HOP-92 NSCLC) [µM] | TGI (CAKI-1 renal) [µM] | TGI (ACHN renal) [µM] | TGI (KM12 colon) [µM] | TGI (SW-620 colon) [µM] | TGI (A549 NSCLC) [µM] | TGI (NCI/ADR-RES ovarian) [µM] | TGI (SR leukemia) [µM] |
| --- | --- | --- | --- | --- | --- | --- | --- | --- | --- | --- | --- | --- | --- | --- | --- | --- | --- |
| O=C(O)CC/C(=N\Nc1nsc2ccccc12)c1ccc(Cl)cc1 | > 100 | > 67.1 | > 100 | > 63.5 | > 100 | 50.6 | > 100 | > 78.1 | 57.7 | > 100 | 52.2 | > 80.6 | > 100 | > 87.8 | > 82.2 |  |  |
| COc1cc([C@@H]2c3[nH]c4ccccc4c3C(Nc3ccc([N+](=O)[O-])cc3)[C@H]3COC(=O)N23)cc(OC)c1O (stereo partly drawn) | 2.81 | 3.22 | 0.744 | 0.302 | 7.88 | 1.17 | 2.06 |  | 3.76 | 1.96 | 2.11 | 0.659 | 2.71 |  | 0.95 | > 100 |  |
| N#Cc1cc([N+](=O)[O-])ccc1NC(=O)C(=O)C(C(=O)/C=C/c1ccccc1)C1OC(=O)c2ccccc21 (stereo not drawn) |  | > 100 |  | > 100 |  | > 100 | > 100 | > 100 | > 100 | > 100 | > 100 | > 100 | > 100 | > 100 | > 100 |  | > 100 |
| COc1ccc([C@H]2CC(=O)NCCCCN2)cc1 |  | > 100 |  | > 100 |  | > 100 | > 100 | > 100 | > 100 | > 100 | > 100 | > 100 | > 100 |  | > 100 |  | > 100 |
| N#CCCN(CCC#N)c1ccc(/C=C2\N=C(c3ccccc3)N(c3ccccn3)C2=O)cc1 | > 100 | > 100 | > 100 | > 100 | > 100 | > 100 | > 100 | > 100 | > 100 | > 100 | > 100 | > 100 | > 100 | > 100 | > 100 | > 100 |  |
| CNC(=O)CCCN(C)C(=O)CCCCC(=O)N(C)C | > 100 | > 100 | > 100 | > 100 | > 100 | > 100 | > 100 | > 100 | > 100 | > 100 | > 100 | > 100 | > 100 | > 100 | > 100 | > 100 |  |
| c1cncc(-c2ncc3cccnc3n2)c1 | > 100 | > 100 | > 100 | > 100 | > 100 | > 100 | > 100 | > 100 | > 100 | > 100 | > 100 | > 100 | > 100 | > 100 | > 100 | > 100 |  |
| Cc1n[nH]c(=O)n1/N=C/c1c[nH]c2ccccc12 |  | > 100 | > 100 | > 100 | > 100 | > 100 | > 100 |  | > 100 | > 100 | > 100 | > 100 | > 100 | > 100 | > 100 | > 100 | > 100 |
| O=C(Nc1c(O)[nH]c(=S)[nH]c1=O)c1ccc2ccccc2n1 |  | > 100 |  | > 100 |  | > 100 |  | > 100 | > 100 | > 100 | > 100 | > 100 |  | > 100 | > 100 |  | > 100 |
| COc1cccc(/C=C2\CCCCCC2=O)c1 | > 100 | > 100 | > 100 | > 100 | > 100 | > 100 | > 100 | > 100 | > 100 | > 100 | > 100 | > 100 | > 100 | > 100 | > 100 |  | > 100 |
| O=C(NCCO)Nc1c(C(F)(F)F)cc(-c2ccccc2)[nH]c1=O | > 100 | > 100 | > 100 | > 100 | > 100 | > 100 | > 100 | > 100 | > 100 | > 100 | > 100 | > 100 | > 100 | > 100 | > 100 | > 100 |  |
| COc1nc2sc3c(c2c(=O)n1CCCSSCCCn1c(OC)nc2sc4c(c2c1=O)CCCC4)CCCC3 | > 100 | > 100 | > 100 | > 100 | > 100 | > 100 | > 100 | > 100 | > 100 | > 100 | > 100 | > 100 | > 100 |  | > 100 | > 100 |  |
| NC1=NNC2(C(N)=N1)c1ccccc1-c1ccccc12 |  | > 10 | > 10 | > 10 | > 10 | > 10 |  | > 10 | > 10 | > 10 | > 10 | > 10 | > 10 | > 10 | > 10 | > 10 | > 10 |
| COc1ccc2c(c1)N=C1CSC(c3cc([N+](=O)[O-])ccc3Cl)N1C2 (stereo not drawn) | > 100 | 57.9 |  | 97.2 | 59.3 | 42.1 | 68.2 | 68.4 | 89.6 | 71.5 | 66.8 | 54.1 | 46.3 | > 100 | > 100 | 74.1 | 70.1 |
| CC(C)OP(=O)(OC(C)C)C(=Nc1ccccc1)NNc1ccc([N+](=O)[O-])cc1 |  | > 100 |  | > 100 |  | 29.1 | > 100 |  | > 100 | 40.2 | > 100 | 92.5 | 43.6 | > 100 | 88.5 |  | 43.4 |
